According to patent publication US20100298141A1, “SUBSTITUTED PYRIDINE N-OXIDE HERBICIDES” (E. I. DU PONT DE NEMOURS AND COMPANY, priority 2007, published 2010):

Legend:
[1] = test system: giant foxtail; experiment: Test C pre-/postemergence test; format: in vivo, Setaria faberii
Summary of the method: (§1)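 Test chemicals were formulated with surfactant in a non-phytotoxic solvent and sprayed both on freshly planted seeds (preemergence) and on 1- to 4-leaf plants of 2–18 cm (postemergence). Flooded-paddy pots received compound directly into 3 cm of standing water, maintained for the test.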

[2] = test system: wheat; experiment: Test C pre-/postemergence test; format: in vivo, Triticum aestivum
Summary of the method: as §1

[3] = test system: woolly cupgrass; experiment: Test C pre-/postemergence test; format: in vivo, Eriochloa villosa
Summary of the method: as §1

[4] = test system: cocklebur; experiment: Test C pre-/postemergence test; format: in vivo, Xanthium strumarium; conditions: for Plant response rating, Cocklebur: scale 0 to 100, 0 no effect, 100 complete control
Summary of the method: as §1

[5] = test system: kochia; experiment: Test C pre-/postemergence test; format: in vivo, Kochia scoparia
Summary of the method: as §1

[6] = test system: downy brome; experiment: Test C pre-/postemergence test; format: in vivo, Bromus tectorum
Summary of the method: as §1

[7] = test system: wild oat; experiment: Test C pre-/postemergence test; format: in vivo, Avena fatua
Summary of the method: as §1

[8] = test system: morningglory; experiment: Test A pre-/postemergence greenhouse test; format: in vivo, Ipomoea spp.; conditions: for Plant response rating, Morningglory: 0 to 100 scale where 0 is no effect and 100 is complete control; for Morningglory plant response rating: 0 to 100 scale
Summary of the method: (§2)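 Untreated controls served as the reference for visual injury ratings taken about ten days after spraying. The non-phytotoxic solvent/surfactant formulation was applied preemergence to seeded loam and sand and postemergence to plants two to ten cm high.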

[9] = test system: Surinam grass; experiment: Test C pre-/postemergence test; format: in vivo, Brachiaria decumbens
Summary of the method: as §1

[10] = test system: blackgrass; experiment: Test C pre-/postemergence test; format: in vivo, Alopecurus myosuroides
Summary of the method: as §1

[11] = test system: giant foxtail; experiment: Test A pre-/postemergence greenhouse test; format: in vivo, Setaria faberi; conditions: for Plant response rating, Foxtail, Giant: 0 to 100 scale where 0 is no effect and 100 is complete control; for Foxtail, Giant plant response rating: 0 to 100 scale
Summary of the method: as §2

[12] = test system: velvetleaf; experiment: Test C pre-/postemergence test; format: in vivo, Abutilon theophrasti
Summary of the method: as §1

[13] = test system: wheat; experiment: Test A pre-/postemergence greenhouse test; format: in vivo, Triticum aestivum; conditions: for Plant response rating, Wheat: 0 to 100 scale where 0 is no effect and 100 is complete control; for Wheat plant response rating: 0 to 100 scale
Summary of the method: as §2

[14] = test system: common ragweed; experiment: Test C pre-/postemergence test; format: in vivo, Ambrosia elation; conditions: for Plant response rating (0 to 100), Ragweed / Plant response rating, Ragweed: Postemergence; for Plant response rating, Ragweed: scale 0 to 100, 0 no effect, 100 complete control
Summary of the method: as §1

[15] = test system: common (oilseed) sunflower; experiment: Test C pre-/postemergence test; format: in vivo, Helianthus annuus
Text: Seeds of plant species selected from blackgrass (Alopecurus myosuroides), downy brome (Bromus tectorum), green foxtail (Setaria viridis), Italian ryegrass (Lolium multiflorum), wheat (Triticum aestivum), wild oat (Avena fatua), catchweed bedstraw (Galium aparine), Russian thistle (Salsola kali), […] (Cynodon dactylon), Surinam grass (Brachiaria decumbens), cocklebur (Xanthium strumarium), corn (Zea mays), crabgrass (Digitaria sanguinalis), woolly cupgrass (Eriochloa villosa), giant foxtail (Setaria faberii), Goosegrass (Eleusin indica), johnsongrass (Sorghum halepense), kochia (Kochia scoparia), lambsquarters (Chenopodium album), morningglory (Ipomoea coccinea), eastern black nightshade (Solanum ptycanthum), yellow nutsedge (Cyperus esculentus), pigweed (Amaranthus retroflexus), common ragweed (Ambrosia elation), soybean (Glycine max), common (oilseed) sunflower (Helianthus annuus), and velvetleaf (Abutilon theophrasti) were planted and treated preemergence with test chemicals formulated in a non-phytotoxic solvent mixture which included a surfactant. At the same time, plants selected from these crop and weed species and also winter barley (Hordeum vulgare), canarygrass (Phalaris minor), and chickweed (Stellaria media) were treated with postemergence applications of some of the test chemicals formulated in the same manner. Plants ranged in height from 2 to 18 cm (1- to 4-leaf stage) for postemergence treatments. […] At time of treatment, test pots were flooded to 3 cm above the soil surface, treated by application of test compounds directly to the paddy water, and then maintained at that water depth for the duration of the test. […] A dash (-) response means no test result.

[16] = test system: redroot pigweed; experiment: Test A pre-/postemergence greenhouse test; format: in vivo, Amaranthus retroflexus; conditions: for Plant response rating, Pigweed: 0 to 100 scale where 0 is no effect and 100 is complete control; for Pigweed plant response rating: 0 to 100 scale
Summary of the method: as §2

[17] = test system: lambsquarters; experiment: Test C pre-/postemergence test; format: in vivo, Chenopodium album; conditions: Postemergence; for Plant response rating, Lambsquarters: scale 0 to 100, 0 no effect, 100 complete control
Summary of the method: as §1

[18] = 62 g ai/ha, Preemergence, scale 0 to 100
[19] = 125 g ai/ha, preemergence, scale 0 (no effect) to 100 (complete control)
[20] = Postemergence, 62 g ai/ha, scale 0 to 100, 0 no effect, 100 complete control
[21] = Postemergence, 125 g ai/ha, scale 0 to 100, 0 no effect, 100 complete control
[22] = Postemergence, 250 g ai/ha, scale 0 to 100, 0 no effect, 100 complete control
[23] = Preemergence, 31 g ai/ha, scale 0 to 100 (0 no effect, 100 complete control)
[24] = preemergence, 250 g ai/ha, scale 0 (no effect) to 100 (complete control)
[25] = Postemergence, 500 g ai/ha, 0 is no effect, 100 is complete control
[26] = Preemergence, 125 g ai/ha, 0 no effect, 100 complete control

Structure (SMILES): CCn1nc(C(F)(F)F)c(CS(=O)(=O)c2cc(C)cc[n+]2[O-])c1OCC(F)(F)F [Compound 64]
- Foxtail, Giant plant response rating [1, 18]: 100
- Foxtail, Giant plant response rating [1, 19]: 100
- Plant response rating (0 to 100), Foxtail, Giant ([1]; Postemergence, 31 g ai/ha): 0
- Plant response rating, Foxtail, Giant [1, 20]: 0
- Plant response rating, Foxtail, Giant [1, 21]: 0
- Plant response rating, Foxtail, Giant [1, 22]: 45
- Plant response rating, Foxtail, Giant [1, 23]: 85
- Foxtail, Giant plant response rating [1, 24]: 100
- Wheat plant response rating [2, 18]: 20
- Wheat plant response rating [2, 19]: 30
- Plant response rating (0 to 100), Wheat ([2]; Postemergence, 31 g ai/ha): 0
- Plant response rating (0 to 100), Wheat ([2]; Postemergence, 62 g ai/ha): 50
- Plant response rating, Wheat [2, 21]: 65
- Plant response rating, Wheat [2, 22]: 65
- Plant response rating, Wheat [2, 23]: 0
- Wheat plant response rating [2, 24]: 100
- Cupgrass, Woolly plant response rating [3, 18]: 100
- Cupgrass, Woolly plant response rating [3, 19]: 100
- Plant response rating (0 to 100), Cupgrass, Woolly ([3]; Postemergence, 31 g ai/ha): 0
- Plant response rating, Cupgrass, Woolly [3, 20]: 0
- Plant response rating, Cupgrass, Woolly [3, 21]: 0
- Plant response rating, Cupgrass, Woolly [3, 22]: 50
- Plant response rating, Cupgrass, Woolly [3, 23]: 60
- Cupgrass, Woolly plant response rating [3, 24]: 100
- Cocklebur plant response rating [4, 18]: 0
- Cocklebur plant response rating [4, 19]: 0
- Plant response rating (0 to 100), Cocklebur ([4]; Postemergence, 31 g ai/ha): 0
- Plant response rating, Cocklebur ([4]; Postemergence, 62 g ai/ha): 0
- Plant response rating, Cocklebur ([4]; Postemergence, 125 g ai/ha): 0
- Plant response rating, Cocklebur ([4]; Postemergence, 250 g ai/ha): 0
- Kochia plant response rating [5, 18]: 100
- Kochia plant response rating [5, 19]: 100
- Plant response rating (0 to 100), Kochia ([5]; Postemergence, 31 g ai/ha): 0
- Plant response rating, Kochia [5, 20]: 0
- Plant response rating, Kochia [5, 21]: 0
- Plant response rating, Kochia [5, 22]: 0
- Plant response rating, Kochia [5, 23]: 100
- Kochia plant response rating [5, 24]: 100
- Bromegrass, Downy plant response rating [6, 18]: 30
- Bromegrass, Downy plant response rating [6, 19]: 85
- Plant response rating (0 to 100), Bromegrass, Downy ([6]; Postemergence, 31 g ai/ha): 0
- Plant response rating, Bromegrass, Downy [6, 20]: 0
- Plant response rating, Bromegrass, Downy [6, 21]: 10
- Plant response rating, Bromegrass, Downy [6, 22]: 20
- Plant response rating, Bromegrass, Downy [6, 23]: 30
- Bromegrass, Downy plant response rating [6, 24]: 100
- Oat, Wild plant response rating [7, 18]: 80
- Oat, Wild plant response rating [7, 19]: 90
- Plant response rating (0 to 100), Oat, Wild ([7]; Postemergence, 31 g ai/ha): 0
- Plant response rating, Oat, Wild [7, 20]: 30
- Plant response rating, Oat, Wild [7, 21]: 50
- Plant response rating, Oat, Wild [7, 22]: 85
- Plant response rating, Oat, Wild [7, 23]: 50
- Oat, Wild plant response rating [7, 24]: 98
- Plant response rating, Morningglory ([8]; Postemergence, 125 g ai/ha): 30
- Morningglory plant response rating [8, 25]: 60
- Morningglory plant response rating [8, 26]: 30
- Plant response rating, Morningglory ([8]; Preemergence, 500 g ai/ha): 80
- Surinam Grass plant response rating [9, 18]: 100
- Surinam Grass plant response rating [9, 19]: 100
- Plant response rating (0 to 100), Surinam Grass ([9]; Postemergence, 31 g ai/ha): 0
- Plant response rating (0 to 100), Surinam Grass ([9]; Postemergence, 62 g ai/ha): 0
- Plant response rating, Surinam Grass [9, 21]: 0
- Plant response rating, Surinam Grass [9, 22]: 40
- Plant response rating, Surinam Grass [9, 23]: 95
- Surinam Grass plant response rating [9, 24]: 100
- Blackgrass plant response rating [10, 18]: 90
- Blackgrass plant response rating [10, 19]: 100
- Plant response rating (0 to 100), Blackgrass ([10]; Postemergence, 31 g ai/ha): 20
- Plant response rating, Blackgrass [10, 20]: 60
- Plant response rating, Blackgrass [10, 21]: 60
- Plant response rating, Blackgrass [10, 23]: 90
- Blackgrass plant response rating [10, 24]: 100
- Plant response rating, Foxtail, Giant ([11]; Postemergence, 125 g ai/ha): 80
- Foxtail, Giant plant response rating [11, 25]: 90
- Foxtail, Giant plant response rating [11, 26]: 100
- Plant response rating, Foxtail, Giant ([11]; Preemergence, 500 g ai/ha): 100
- Velvetleaf plant response rating [12, 18]: 100
- Velvetleaf plant response rating [12, 19]: 100
- Plant response rating (0 to 100), Velvetleaf ([12]; Postemergence, 31 g ai/ha): 0
- Plant response rating (0 to 100), Velvetleaf ([12]; Postemergence, 62 g ai/ha): 0
- Plant response rating, Velvetleaf [12, 21]: 0
- Plant response rating, Velvetleaf [12, 22]: 40
- Plant response rating, Velvetleaf [12, 23]: 45
- Velvetleaf plant response rating [12, 24]: 100
- Plant response rating, Wheat ([13]; Postemergence, 125 g ai/ha): 50
- Wheat plant response rating [13, 25]: 60
- Wheat plant response rating [13, 26]: 40
- Plant response rating, Wheat ([13]; Preemergence, 500 g ai/ha): 70
- Ragweed plant response rating [14, 18]: 85
- Ragweed plant response rating [14, 19]: 100
- Plant response rating (0 to 100), Ragweed ([14]; 31 g ai/ha): 0
- Plant response rating (0 to 100), Ragweed ([14]; 62 g ai/ha): 0
- Plant response rating, Ragweed ([14]; 125 g ai/ha): 0
- Plant response rating, Ragweed ([14]; 250 g ai/ha): 0
- Ragweed plant response rating [14, 24]: 100
- Sunflower plant response rating [15, 18]: 30
- Sunflower plant response rating [15, 19]: 80
- Plant response rating, Sunflower [15, 23]: 0
- Sunflower plant response rating [15, 24]: 95
- Plant response rating, Pigweed ([16]; Postemergence, 125 g ai/ha): 70
- Pigweed plant response rating [16, 25]: 80
- Pigweed plant response rating [16, 26]: 50
- Plant response rating, Pigweed ([16]; Preemergence, 500 g ai/ha): 100
- Plant response rating (0 to 100), Lambsquarters ([17]; 31 g ai/ha): 0
- Plant response rating, Lambsquarters ([17]; 62 g ai/ha): 0
- Plant response rating, Lambsquarters ([17]; 125 g ai/ha): 0
- Plant response rating, Lambsquarters ([17]; 250 g ai/ha): 0
